Key:
[1] = system: FCV F9; experiment: Effect of 5,7,3′,4′-tetrarydroxyflavon-3-ol C4-C8 dimers on FCV F9 infection of CRFK cells; assay type: cell-based, feline calicivirus (cat kidney CRFK cells); settings: 0.1% dimers, added before, with or after virus (FIG. 6)
Method: 50 μl of virus was added to 450 μl complete EMEM to create a 10^−1 viral mix. A series of dilutions made from this mix up to 10^−8. Virus was added to all wells by loading 250 μl from each dilution to the designated wells. 3 well repeats were prepared. Purified 5, 7, 3′, 4′-tetrarydroxyflavon-3-ol C4-C8 dimers was diluted to 0.1% in complete EMEM.
For experiments in which 5, 7, 3′, 4′-tetrarydroxyflavon-3-ol C4-C8 dimers was added before the virus, 5, 7, 3′, 4′-tetrarydroxyflavon-3-ol C4-C8 dimers was diluted to 0.1% using MM (1:100), added to cells and incubated for 1 hour before the virus was added to the cells.
For experiments in which 5, 7, 3′, 4′-tetrarydroxyflavon-3-ol C4-C8 dimers was added simultaneously with the virus, the virus was diluted in 0.1% purified complete EMEM, added to wells, incubated for 1 hour, then complete EMEM was added to the wells.
For experiments in which 5, 7, 3′, 4′-tetrarydroxyflavon-3-ol C4-C8 dimers was added after viral infection, viral dilutions were added to wells, incubated for 1 hour, 0.1% complete EMEM was added to the wells. The medium was changed to complete EMEM after 60 minutes.

[2] = system: FCV F9; experiment: Effect of quercetin on FCV F9 infection of CRFK cells; assay type: cell-based, feline calicivirus (cat kidney CRFK cells); settings: 0.1% quercetin, added 1 hour before, with, or 1 hour after virus (FIG. 4)
Method: 50 μl of the virus was added to 450 μl HBSS making a 10^−1 viral titer mix. A series of dilutions made from this mix up to 10^−8. Virus was added to all wells by loading 250 μl from each dilution to the designated wells, same as for viral titer. 3 well repeats were prepared. Quercetin was prepared at 10% quercetin in DMSO.
For experiments in which quercetin was added before viral infection, the quercetin was diluted to 0.1% using MM (1:100), added to cells, and incubated for 1 hour.
For experiments in which quercetin was added at the same time as viral infection, the virus was diluted in 0.1% quercetin MM/DMSO, added to wells, incubated for 1 hour, and then MM was added.
For experiments in which quercetin was added after viral infection, viral dilutions were added to the cells, incubated for 1 hour, then 0.1% quercetin in MM/DMSO was added. The medium was changed to MM after 60 minutes.

SMILES: Oc1cc(O)c2c(c1)OC(c1ccc(O)c(O)c1)C(O)C2c1c(O)cc(O)c2c1OC(c1ccc(O)c(O)c1)C(O)C2 (centres unmarked) [5,7, 3′, 4′-tetrahydroxyflavan-3-ol C4-C8 dimers]
- effect against FCV infection [1]: effective against FCV infection comparable to quercetin and better than rutin

SMILES: O=c1c(O)c(-c2ccc(O)c(O)c2)oc2cc(O)cc(O)c12 [quercetin, 3, 3′, 4′, 5,7-pentahydroxyfivanone]
- inhibition of FCV F9 infection of CRFK cells [2]: significantly inhibited

From US20260191924A1, “METHODS AND COMPOSITIONS FOR TREATING VIRAL INFECTIONS” (DST Pharma, Inc., priority 2020, published 2026)
